According to PubChem BioAssay AID1963828 (Molecular Pharmacology Branch, DTP, NCI, 2024):

Tested on: 991263-137-R1-J2-PDC complex spheroid viability
Assay: Anticancer human tumor 991263-137-R1-J2-PDC patient-derived colon adenocarcinoma cell line growth inhibition [POLQ]
Details: for IC50: curve of first compound; for viability, T/C: stronger effect = lower value
Method in brief: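 PDC + HUVEC + MSC complex spheroids; POLQ inhibitors ± partner drugs; top conc. at/near clinical Cmax, else 10 microM (SN-38 1 microM), half-log dilutions; 37 degrees C, 5% CO2.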

[1] = second compound 0.0316 µM, first compound 0.0316 µM
[2] = second compound 0.0316 µM, first compound 0.1 µM
[3] = second compound 0.0316 µM, first compound 0.316 µM
[4] = second compound 0.0316 µM, first compound 1 µM
[5] = second compound 0.0316 µM, first compound 3.16 µM
[6] = second compound 0.0316 µM, first compound 10 µM
[7] = second compound 0.1 µM, first compound 0.0316 µM
[8] = second compound 0.1 µM, first compound 0.1 µM
[9] = second compound 0.1 µM, first compound 0.316 µM
[10] = second compound 0.1 µM, first compound 1 µM
[11] = second compound 0.1 µM, first compound 3.16 µM
[12] = second compound 0.1 µM, first compound 10 µM
[13] = second compound 0.316 µM, first compound 0.0316 µM
[14] = second compound 0.316 µM, first compound 0.1 µM
[15] = second compound 0.316 µM, first compound 0.316 µM
[16] = second compound 0.316 µM, first compound 1 µM
[17] = second compound 0.316 µM, first compound 3.16 µM
[18] = second compound 0.316 µM, first compound 10 µM
[19] = second compound 1 µM, first compound 0.0316 µM
[20] = second compound 1 µM, first compound 0.1 µM
[21] = second compound 1 µM, first compound 0.316 µM
[22] = second compound 1 µM, first compound 1 µM
[23] = second compound 1 µM, first compound 3.16 µM
[24] = second compound 1 µM, first compound 10 µM
[25] = second compound 3.16 µM, first compound 0.0316 µM
[26] = second compound 3.16 µM, first compound 0.1 µM
[27] = second compound 3.16 µM, first compound 0.316 µM
[28] = second compound 3.16 µM, first compound 1 µM
[29] = second compound 3.16 µM, first compound 3.16 µM
[30] = second compound 3.16 µM, first compound 10 µM
[31] = second compound 10 µM, first compound 0.0316 µM
[32] = second compound 10 µM, first compound 0.1 µM
[33] = second compound 10 µM, first compound 0.316 µM
[34] = second compound 10 µM, first compound 1 µM
[35] = second compound 10 µM, first compound 3.16 µM
[36] = second compound 10 µM, first compound 10 µM
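Note: spheroids exposed to compounds for 7 days before readout.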
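Throughout, for viability, T/C: 100% = DMSO vehicle control viability.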

Q: What does the source list for `CC1COCCN1c1cc(-c2ccnn2C)c2ccnc(-c3ccn[nH]3)c2n1` (centres undefined) + Cc1cccc(N(C)C(=O)C2C(O)CCN2c2nc(C)cc(C(F)(F)F)c2C#N)c1?
A: IC50 (second compound 0.0316 µM): 0.948 µM; IC50 (second compound 0.1 µM): 1 µM; IC50 (second compound 0.316 µM): 0.77 µM; IC50 (second compound 1 µM): 0.99 µM; IC50 (second compound 3.16 µM): 1.43 µM; IC50 (second compound 10 µM): 0.851 µM; viability, T/C [1]: 99.7%; viability, T/C [2]: 96.8%; viability, T/C [3]: 81.5%; viability, T/C [4]: 47.6%; viability, T/C [5]: 36.2%; viability, T/C [6]: 29.4%; viability, T/C [7]: 125%; viability, T/C [8]: 97.6%; viability, T/C [9]: 81.8%; viability, T/C [10]: 45.2%; viability, T/C [11]: 35.7%; viability, T/C [12]: 33.5%; viability, T/C [13]: 94.4%; viability, T/C [14]: 110%; viability, T/C [15]: 75.4%; viability, T/C [16]: 44.3%; viability, T/C [17]: 35.1%; viability, T/C [18]: 28.8%; viability, T/C [19]: 90.3%; viability, T/C [20]: 99.3%; viability, T/C [21]: 64.3%; viability, T/C [22]: 53.3%; viability, T/C [23]: 39.3%; viability, T/C [24]: 30.7%; viability, T/C [25]: 88.8%; viability, T/C [26]: 114%; viability, T/C [27]: 89%; viability, T/C [28]: 58.2%; viability, T/C [29]: 32.9%; viability, T/C [30]: 31.6%; viability, T/C [31]: 103%; viability, T/C [32]: 104%; viability, T/C [33]: 78.3%; viability, T/C [34]: 46%; viability, T/C [35]: 34.9%; viability, T/C [36]: 32.1%

Q: Which results are given for `CCc1cc2c(N3CCc4c(cc(Cn5ccnc5)cc4-c4cn(C)nc4C(F)(F)F)C3=O)ccnc2c(OC)n1` + Cc1cccc(N(C)C(=O)C2C(O)CCN2c2nc(C)cc(C(F)(F)F)c2C#N)c1?
A: IC50 (second compound 0.0316 µM): > 10 µM; IC50 (second compound 0.1 µM): > 10 µM; IC50 (second compound 0.316 µM): > 10 µM; IC50 (second compound 1 µM): > 10 µM; IC50 (second compound 3.16 µM): > 10 µM; IC50 (second compound 10 µM): > 10 µM; viability, T/C [1]: 95.3%; viability, T/C [2]: 108%; viability, T/C [3]: 107%; viability, T/C [4]: 87.2%; viability, T/C [5]: 82.8%; viability, T/C [6]: 91.7%; viability, T/C [7]: 103%; viability, T/C [8]: 100%; viability, T/C [9]: 97.7%; viability, T/C [10]: 95.9%; viability, T/C [11]: 96.7%; viability, T/C [12]: 88.3%; viability, T/C [13]: 104%; viability, T/C [14]: 96.8%; viability, T/C [15]: 93.4%; viability, T/C [16]: 95.7%; viability, T/C [17]: 100%; viability, T/C [18]: 94.4%; viability, T/C [19]: 105%; viability, T/C [20]: 98.4%; viability, T/C [21]: 110%; viability, T/C [22]: 96%; viability, T/C [23]: 103%; viability, T/C [24]: 92%; viability, T/C [25]: 106%; viability, T/C [26]: 97.5%; viability, T/C [27]: 90.4%; viability, T/C [28]: 96.2%; viability, T/C [29]: 90.3%; viability, T/C [30]: 89%; viability, T/C [31]: 96.6%; viability, T/C [32]: 111%; viability, T/C [33]: 97%; viability, T/C [34]: 89.9%; viability, T/C [35]: 91.4%; viability, T/C [36]: 83%
